Series [1] deals with Adenosine kinase (Homo sapiens, UniProt P55263). In words: Inhibition of human wild type AK expressed in Escherichia coli using [2,8- 3H]-Ado and ATP as substrate by radiometric analysis.
The target in series [2] is T1, Glycogen synthase kinase-3 beta (Homo sapiens, UniProt P49841).
Description: Inhibition of GSK-3beta (unknown origin)
A short description of series [3]: Cmax in CD-1 mouse plasma at 10 mg/kg, po and measured after 30 mins by LC-MS/MS analysis. Type of series: ADME, organism-based. Set-up: dose 10 mg/kg, time 30 min, route po.
A short description of series [4]: Kinetic aqueous solubility of the compound in PBS buffer at pH 7.4 at 250 uM and measured after 24 hrs by UPLC/MS analysis. As to conditions: read-out: Kinetic_solubility. Type of series: physicochemical.
Series [5] addresses Beta-secretase 1 (Homo sapiens, UniProt P56817). In words: Inhibition of BACE-1 (unknown origin) using M-240 (methoxycoumarin-Ser-Glu-Val-Asn-Leu-Asp-Ala-Glu-Phe-Lys-dinitrophenyl) peptide as substrate preincubated for 60 mins followed by substrate addition and measured after 15 mins by fluorescence based analysis.
Series [6] is described as follows: Cmax in CD-1 mouse brain at 10 mg/kg, po and measured after 30 mins by LC-MS/MS analysis. Type of series: ADME, organism-based. Set-up: dose 10 mg/kg, time 30 min, route po.
Series [7] concerns the target T1, Glycogen synthase kinase-3 beta. In words: Inhibition of recombinant human GSK-3beta incubated for 30 mins using prephosphorylated polypeptide as substrate in presence of ATP by Kinase-Glo reagent based luminescent assay.

T1 sequence (P49841 whole entry): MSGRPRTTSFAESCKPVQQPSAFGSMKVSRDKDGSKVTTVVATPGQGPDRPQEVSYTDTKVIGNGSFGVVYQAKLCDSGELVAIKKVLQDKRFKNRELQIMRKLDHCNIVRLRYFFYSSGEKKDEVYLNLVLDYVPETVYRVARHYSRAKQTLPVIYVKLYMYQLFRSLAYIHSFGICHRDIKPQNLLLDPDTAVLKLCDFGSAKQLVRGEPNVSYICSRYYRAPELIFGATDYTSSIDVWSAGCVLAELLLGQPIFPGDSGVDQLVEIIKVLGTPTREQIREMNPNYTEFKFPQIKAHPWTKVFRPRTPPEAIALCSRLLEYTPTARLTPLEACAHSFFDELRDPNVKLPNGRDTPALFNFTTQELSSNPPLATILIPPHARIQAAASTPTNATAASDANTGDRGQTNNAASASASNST
Adenosine kinase, sequence (P55263 whole entry): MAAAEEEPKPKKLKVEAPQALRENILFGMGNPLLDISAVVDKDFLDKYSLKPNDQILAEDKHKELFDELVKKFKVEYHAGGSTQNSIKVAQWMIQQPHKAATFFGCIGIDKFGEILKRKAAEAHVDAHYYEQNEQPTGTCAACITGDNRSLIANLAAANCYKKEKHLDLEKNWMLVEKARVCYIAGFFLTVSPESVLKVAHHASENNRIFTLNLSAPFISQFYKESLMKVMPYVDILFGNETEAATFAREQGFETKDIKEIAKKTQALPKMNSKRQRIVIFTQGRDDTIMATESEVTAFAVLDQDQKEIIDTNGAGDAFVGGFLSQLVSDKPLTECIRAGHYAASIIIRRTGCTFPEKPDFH
Beta-secretase 1, sequence (P56817 whole entry): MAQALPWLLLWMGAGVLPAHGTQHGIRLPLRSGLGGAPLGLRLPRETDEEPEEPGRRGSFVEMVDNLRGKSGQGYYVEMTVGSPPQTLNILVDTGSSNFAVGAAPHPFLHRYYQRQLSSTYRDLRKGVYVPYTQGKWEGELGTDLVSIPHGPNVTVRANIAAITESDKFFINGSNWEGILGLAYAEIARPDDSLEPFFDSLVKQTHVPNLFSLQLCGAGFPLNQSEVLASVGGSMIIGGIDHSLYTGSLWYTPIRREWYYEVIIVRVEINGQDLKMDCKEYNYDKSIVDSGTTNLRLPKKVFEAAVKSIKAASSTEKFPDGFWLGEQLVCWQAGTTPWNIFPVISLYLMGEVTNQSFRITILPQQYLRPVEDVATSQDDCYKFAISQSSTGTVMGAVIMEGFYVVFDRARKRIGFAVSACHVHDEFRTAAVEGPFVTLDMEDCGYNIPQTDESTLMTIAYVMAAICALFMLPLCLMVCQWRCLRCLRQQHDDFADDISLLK

With `CCC1(c2ccc(COc3ccccc3)cc2)Oc2ccccc2-n2cccc2C1=O` (configuration not stated), half-maximal inhibition in series [1] (IC50) required 1.2 µM.
With `COc1cc2c(Br)cc3c(c2cc1OC)C(=O)NC3=O`, in series [2], half-maximal inhibition (IC50) was put at 0.304 µM.
Take `NC1=NC(c2ccc(F)cc2)CC(=O)N1` (configuration not stated): the maximum concentration (Cmax) (commonly the highest concentration seen after dosing) is 665 ng/mL in series [3] and 0.613 ng/mL in series [6]. Besides, in series [4], the solubility kinetic at 24 h, 250 µM was more than 250 µM. Also, the half-inhibitory concentration (IC50) (commonly the concentration that inhibits the measured activity by half) in series [5] stood at 18 µM; in series [7] it was 14.7 µM.

For the origin of these results see ChEMBL document CHEMBL5096147, “Glycogen Synthase Kinase 3β: A New Gold Rush in Anti-Alzheimer's Disease Multitarget Drug Discovery?” (J Med Chem, 2021).
